# Assay results as given in patent US4590205A, “Antiinflammatory and/or analgesic 2,3-diaryl-5-halo thiophenes” (E. I. Du Pont de Nemours and Company, priority 1984, dated 1986).
# Read-outs that look alike come from different tables or passages of the source.
# Key:
# [1] = system: adjuvant-induced arthritis in rats; experiment: Established adjuvant-induced arthritis in rats (decrease of paw volume); type: in vivo, Charles River Lewis male rats; conditions: for ED50: Rattus norvegicus, read-out: Adjuvant Arthritis ED50
# [2] = system: characteristic stretching or writhing syndrome which is indicative of pain induced by phenylquinone; experiment: Phenylquinone writhing test (PQW), analgesic activity; type: in vivo, female white mice; conditions: Mus musculus, read-out: PQW ED50
# Protocol: A test compound suspended in 1% methylcellulose was given orally to fasted (17-21 hours) female white mice, 5-20 animals per double blind test. Aqueous (0.01% phenyl-p-benzoquinone) phenylquinone, 0.20 ml per mouse, was injected intraperitoneally 6 minutes before observations were begun.
# [3] = oral gavage, 7 daily doses, ED50% decrease from control paw volume
# [4] = oral, fasted mice, effective analgesic dose for 50% of the mice
SMILES,ED50 ([1]; po) [mg/kg],ED50 ([2]; po) [mg/kg],"ED50 [1, 3] [mg/kg]","ED50 [2, 4] [mg/kg]","% Decrease from control paw volume at indicated daily dose ([1]; daily dose 81 (mg/kg), oral) [%]"
"CC(=O)Oc1ccccc1C(=O)O [Aspirin, aspirin, reference compound]",305,135,,,
"Fc1ccc(-c2cc(Br)sc2-c2ccc(F)cc2)cc1 [Example 1, 5-Bromo-2,3-bis(4-fluorophenyl)thiophene]",,,> 60,6.8,
"COc1ccc(-c2cc(Cl)sc2-c2ccc(OC)cc2)cc1 [Example 2, 5-Chloro-2,3-bis(4-methoxyphenyl)thiophene]",,,4.5,2.1,
"COc1ccc(-c2cc(I)sc2-c2ccc(OC)cc2)cc1 [Example 3, 5-Iodo-2,3-bis(4-methoxyphenyl)thiophene]",,,,< 15,46
"CSc1ccc(-c2sc(Br)cc2-c2ccc(F)cc2)cc1 [Example 5, 5-bromo-3-(4-fluorophenyl)-2-(4-methylthiophenyl)thiophene]",,,1.4,> 108,
"CSc1ccc(-c2cc(Br)sc2-c2ccc(F)cc2)cc1 [Example 6, 5-bromo-2-(4-fluorophenyl)-3-(4-methylthiophenyl)thiophene]",,,0.25,> 108,
Cc1ccc(-c2cc(Br)sc2-c2ccc(C)cc2)cc1 [Example 7],,,> 81,2.9,
COc1ccc(-c2cc(Br)sc2-c2ccc(SC)cc2)cc1 [Example 8],,,2.9,< 15,
"CS(=O)(=O)c1ccc(-c2sc(Br)cc2-c2ccc(F)cc2)cc1 [Example 9, 5-bromo-3-(4-fluorophenyl)-2-(4-methylsulfonylphenyl)thiophene]",,,0.4,> 108,
"CC(C)Cc1ccc(C(C)C(=O)O)cc1 (stereo not drawn) [Ibuprofen, ibuprofen, reference compound]",,,100,10,
"COc1ccc2c(c1)c(CC(=O)O)c(C)n2C(=O)c1ccc(Cl)cc1 [Indomethacin, indomethacin, reference compound]",0.3,0.35,,,
"CCCCC1C(=O)N(c2ccccc2)N(c2ccccc2)C1=O [Phenylbutazone, phenylbutazone, reference compound]",,,10,80,
